Measurements as given in ChEMBL document CHEMBL3507680, “University of Dundee, Gates Library screen for HepG2 cell viability”.

Experiment: Human HepG2 cell viability assay in 384 well format
Type: toxicity, cell-based
Parameters: dose 125 nL, time 70.5 hour; concentration not given beside the values
Settings: HepG2 cells, read-out: Inhibition

| SMILES | cytotoxicity at 70.5 h |
| --- | --- |
| CC(C)c1noc(-c2ccc(NC(=O)NCC(O)C(C)C)cc2)n1 (configuration not stated) | -7.09% |
| COCCN1CCN(Cc2ccncc2)[C@H]2CS(=O)(=O)C[C@H]21 | -6.81% |
| Cc1nc(C)n(C2CCCN(C(=O)c3cc(C(N)=O)cs3)C2)n1 (configuration not stated) | -17.1% |
| COc1ccc(OC)c(C2CCN(C3CCOCC3)C2)c1 (configuration not stated) | 6.32% |
| Cc1ncc(S(=O)(=O)Nc2ccnn2C(C)C)[nH]1 | 3.96% |
| Cc1nn(CN(CC(C)C)C2CC2)c(=O)c2noc(C)c12 | 14.5% |
| CSc1ncc(C(=O)NCc2cc3n(n2)CCCN(CC(C)C)C3)cn1 | 5.43% |
| COc1cccc(CCC(=O)Nc2cnc3c(c2)c(C)nn3C)c1OC | -14.1% |
| O=C(c1ccco1)N1CC2(CCNCC2)c2cc(Cl)ccc21 | 27.2% |
| O=C(c1ccc(Br)o1)N1CCN(Cc2ccc(OC(F)(F)F)cc2)CC1 | -2.19% |
| O=C(NCC1CCOC1)Nc1ccc(OCC(F)(F)F)nc1 (configuration not stated) | -10.7% |
| COCc1c(C(=O)N2CCCC(N(C)Cc3ccccc3)C2)noc1C (configuration not stated) | -3.62% |
| CCOC(=O)CCNC(=O)c1cccc2ccc(C)nc12 | 0.845% |
| COc1ccc(F)c(CN2CC(=O)N(c3ccccc3C)CC2C)c1 (configuration not stated) | -7.03% |
| CCc1nccn1-c1cccc(C2CCCN2S(=O)(=O)N(C)C)n1 (configuration not stated) | -7.54% |
| CC(C)C(=O)N1CCC2(CC1)NC(=O)[C@H]1CN(Cc3cccnc3)C[C@H]12 | 4.61% |
| Cc1nc(O)c2nnn(C[C@H]3CCCN3C(=O)c3ccc(F)cc3)c2n1 | -4.53% |
| Cc1cc(N(C)C)nc(NCCn2cccn2)n1 | -10% |
| CNC(=O)C1CCCCN1C(=O)c1csc(-c2ccc(C)o2)n1 (configuration not stated) | -6.71% |
| O=C(N[C@@H]1CCNC[C@H]1O)c1ccc(F)c(F)c1 | -5.14% |
| CC(Nc1cccc2c1OCCO2)C(=O)Nc1ccc(Cl)cc1 (configuration not stated) | 2.81% |
| O=C(c1ccc(F)c(F)c1)N1CCCSCC1CN1CCCC1 (configuration not stated) | -0.49% |
| COc1ccc2c(C)c(C(=O)NC3CCCOC3)oc2c1 (configuration not stated) | -4.44% |

| SMILES | cytotoxicity at 70.5 h |
| --- | --- |
| COc1cccc(OC)c1-c1ccnc2cc(CC(=O)NC(C)C)nn12 | -7.86% |
| Cc1ccc(CN2CCN(C(=O)CCc3nc(Cl)n[nH]3)CC2=O)cc1 | -14.2% |
| Cc1nnsc1CNC(=O)Nc1cccc(N2CCN(C)C2=O)c1 | 5.12% |
| CC(C)N1[C@H](Cn2cncn2)C[C@@H]2CN(Cc3nccn3C)CC[C@@H]21 | -6.18% |
| COC(=O)[C@H](C)NC(=O)CSCc1nc2sc(C(C)C)cc2c(=O)[nH]1 | -9.3% |
| Cc1csc(C2CCCCN2C(=O)CN(C)C(C)C)n1 (configuration not stated) | 25.2% |
| CN(C)[C@@H]1CO[C@H](CNC(=O)CC(C)(C)C)[C@H]1O | -0.485% |
| CCC(CN1CCCC1)n1cncc1-c1cnn(Cc2ccccc2)c1 (configuration not stated) | -4.48% |
| CC(C)(C)c1cc(=O)n2c(n1)SCC(C(=O)NCc1cccs1)C2 (configuration not stated) | 0.387% |
| Cc1ccc(N2CCO[C@H]3CN(Cc4nccs4)C[C@H]32)nn1 | -6.14% |
| CCC(NC(=O)NCC(=O)NC(C)C)c1cc(F)ccc1F (configuration not stated) | -3.83% |
| Cc1cccc(NC2CCN(C(=O)Nc3cn[nH]c3)CC2)n1 | -6.92% |
| O=C(c1ccc(Cn2ccccc2=O)o1)N1CCSCC1 | -8.03% |
| CC1CCC(NC(=O)CNC2(c3ccc(F)cc3)CCOCC2)CC1 (configuration not stated) | -3.54% |
| CN(C)CC(=O)N1CCc2ncnc(-c3cncnc3)c2CC1 | -3.5% |
| Nc1nc2c(c(NCc3ccc(C(=O)N4CCCC4)cc3)n1)CCCC2 | 2.85% |
| CN(C)C(=O)c1cccc(CCNS(=O)(=O)c2ccccc2)c1 | -1.77% |
| Cc1oc(C(=O)O)cc1S(=O)(=O)Nc1ccc(Br)cc1Cl | -16.9% |
| CC(=O)N1CCOC(c2c(C(=O)NC(C)(C)C)sc3ccccc23)C1 (configuration not stated) | -13.1% |
| O=S(=O)(NCc1ccccc1Cn1cncn1)N1CCCCCC1 | -7.52% |
| Cn1cnnc1-c1ccnc(NCc2ccc3c(c2)OCCO3)c1 | -3.05% |
| CCOC1COC2(CCN(Cc3ccco3)CC2)C1 (configuration not stated) | 18.2% |
| COCC1c2nnn(CC3CC3)c2CCN1C(=O)c1sccc1C (configuration not stated) | -11.5% |

| SMILES | cytotoxicity at 70.5 h |
| --- | --- |
| COc1cccc(N2CCN(C(=O)[C@H](O)C3CCCCC3)CC2=O)c1 | -8.15% |
| Cn1nnc2cc(C(=O)NS(=O)(=O)c3ccc(F)cc3)ccc21 | -3.7% |
| Cc1ccsc1CNCc1c(C(C)C)nn(C)c1N1CCOCC1 | -20.5% |
| COc1cccc([C@@]2(O)CC[C@@H]3CN(C(=O)c4ccn(C)n4)C[C@@H]32)c1 | -6.49% |
| CN(C)C1(CNC(=O)c2c(O)cc(Cl)cc2Cl)CCOCC1 | -9.63% |
| CCc1nc(C)c(CC(=O)N2CCC3(CC2)OCCCC3OC)c(=O)[nH]1 (configuration not stated) | -6.31% |
| CC(C)Cn1cc(NC(=O)c2cccc(N(C)C)c2)cn1 | -8.55% |
| Cc1nc(-c2ccoc2)n(CC(=O)N(C)CC(C)C)c1C | -4.77% |
| CSCc1cc(F)ccc1CNC(=O)N1CCC(CO)CC1 | -0.781% |
| c1cncc(NCCNC2CCSC2)c1 (configuration not stated) | 14.7% |
| OC(CN1CCN(Cc2ccc(F)c(F)c2)CC1)C1CC1 (configuration not stated) | 0.728% |
| CS(=O)(=O)c1ccc(-c2cnc(C3CCCN3)cn2)cc1 (configuration not stated) | -11.3% |
| CCCN1CC2(CCN(c3cc(C4CC4)ncn3)CC2)CC1C(=O)O (configuration not stated) | -4.45% |
| CCc1c(C)n(CC(C)=O)c2nc3ccccc3n2c1=O | -18.1% |
| CN1CC(C(=O)NC2(c3cccc(F)c3)CCOCC2)CC1=O (configuration not stated) | -7.9% |
| CS(=O)(=O)c1ccc(CNC(=O)NCC2CCOC2)cc1 (configuration not stated) | 4.53% |
| CC(c1cccnc1)N(C)Cc1cc(O)c2cc(F)ccc2n1 (configuration not stated) | -6.6% |
| CC(=O)Nc1nc(CN2CCOC(Cn3nc(C)cc3C)C2)cs1 (configuration not stated) | 10.6% |
| CCn1c(C2CCN(C(=O)c3cc(C4CC4)on3)CC2)nn(C)c1=O | -6.56% |
| Cc1ccc(C)c2c1NC(=O)C2CC(=O)O (configuration not stated) | 2.65% |
| C=Cc1ccc(CSc2nc3c(c(=O)[nH]2)CN(CCC)CC3)cc1 | 8.58% |
| CO[C@@H]1CCN(Cc2cnn(C)c2)[C@@H]2CN(Cc3ccco3)C[C@@H]21 | -13.3% |
| CCC(CCNC(=O)c1cc(C2CC2)nc2c1cnn2C)n1cccn1 (configuration not stated) | -19.4% |

| SMILES | cytotoxicity at 70.5 h |
| --- | --- |
| COC[C@@]12CCO[C@@H]1CCN(C(=O)CCc1ccccc1Cl)C2 | -3.89% |
| O=C(C1CCOc2ccccc21)N1CCOc2ccc(F)cc21 (configuration not stated) | -9.88% |
| Fc1ccc(CN2CCO[C@H]3[C@H](OCC4CC4)CC[C@@H]32)cc1 | -4.72% |
| CC1CN(c2ccc(CNC(=O)c3ccn(C)c(=O)c3)cn2)CCO1 (configuration not stated) | -8.78% |
| O=C(NC1CC1)c1cc(C2CC2)nc2onc(C3CCNCC3)c12 | -4.47% |
| O=S(=O)(N1CCOCC1)N1CCCC(c2ccccn2)C1 (configuration not stated) | -8.61% |
| O=C1CC(c2cccnc2)c2c(c(C(=O)O)cn2-c2ccccc2)N1 (configuration not stated) | -1.92% |
| O=c1c2ccccc2nc2n1C(CSc1ccc(Cl)cc1)CN2 (configuration not stated) | 2.49% |
| Cc1cnc2n(c1=O)C(CC(=O)NCc1ccc(Cl)cc1)CS2 (configuration not stated) | -5.3% |
| CCN(Cc1nc2c(cnn2C)c(=O)[nH]1)c1cccc(F)c1 | -5.89% |
| CC(=O)N1C[C@H]2CCCN(c3ncc(C)cn3)[C@H]2C1 | -11.8% |
| CN(C)S(=O)(=O)NCc1nc(-c2cccc(F)c2)c(-c2ccccn2)[nH]1 | -0.435% |
| COc1cccc(-n2nnc(C(=O)N3CCC(C(N)=O)CC3)c2C)c1 | -8.91% |
| CN(C)C(CNC(=O)c1ccc(-n2cnnn2)cc1)c1ccccc1Cl (configuration not stated) | 5.44% |
| c1cnc(N2CCN3C[C@H](Oc4cncnc4)C[C@H]3C2)nc1 | -1.15% |
| CCN(CC(=O)NC)S(=O)(=O)N1CCCCCC1 | -10.4% |
| CN(Cc1ncc[nH]1)CC(c1cccs1)N1CCOCC1 (configuration not stated) | 17.4% |
| CC(C1CCN(Cc2ccccc2OC(F)F)CC1)N1CCOCC1 (configuration not stated) | -8.64% |
| CCOc1ncccc1CNC(=O)N1CCCC1c1cc(C)no1 (configuration not stated) | -12.6% |
| O=C(CCN1CCCC1c1cccs1)N1CCc2sccc2C1 (configuration not stated) | -13.7% |
| CC(C)c1noc(CCNC(=O)C2COc3ccccc3C2)n1 (configuration not stated) | 13.6% |
| O=C(O)c1c(-c2cncnc2)ncc2c1CCN(Cc1cccnc1)C2 | 2.19% |
| CN(CC(N)=O)CC(=O)N1CC=C(c2ccccc2)CC1 | -10.6% |

| SMILES | cytotoxicity at 70.5 h |
| --- | --- |
| CN1CCCCC12Cc1ccccc1CN(C(=O)C1CCCC1)C2 (configuration not stated) | -6.1% |
| COc1ccc2c(c1)CCCN2C(=O)CN1CCOC(C)C1 (configuration not stated) | 0.691% |
| CCN(CCc1nc2cc(C)ccc2[nH]1)C(=O)[C@@H](N)Cc1c[nH]cn1 | -11.4% |
| Cc1ccccc1C1(C(=O)N2CCOC(C)C2)CCOCC1 (configuration not stated) | -5.13% |
| CC(C)c1cc(Br)ccc1NC(=O)NC(C)(CO)CO | -5% |
| CC(C)c1noc(C(C)N2CCN(CCN3CCCC3=O)CC2)n1 (configuration not stated) | -11.8% |
| Cn1cccc1C(=O)N1C[C@@H]2CCCO[C@@H]2[C@H](N2CCOCC2)C1 | 0.647% |
| Cc1cccc(C(=O)N2CCC3(CC(C(=O)N(C)C(C)C)=NO3)C2)c1 (configuration not stated) | -3.14% |
| COc1ccc(-n2ncc(C(C)NC3CCSCC3)c2C)cc1 (configuration not stated) | -4.41% |
| Cc1ccc(C2CCCN2S(=O)(=O)N(C)Cc2cnccn2)o1 (configuration not stated) | -3.89% |
| CC1CCN(CC(=O)NC(C#N)c2cnn(-c3ccccc3)c2)CC1 (configuration not stated) | -2.96% |
| NC(=O)NC(=O)C(c1ccccc1)N1CCN(Cc2ccccc2)CC1 (configuration not stated) | 1.22% |
| O=C(N1CCCC1)N1CC[C@H]2OCC[C@@]2(COc2ncccc2F)C1 | -1.3% |
| COc1cn(CC(N)=O)c(CSc2nccc(C)n2)cc1=O | 23.4% |
| CS(=O)(=O)N1CCC(CNC(=O)C2CCC2)CC1 | 40.8% |
| CC(C)CN1Cc2nc(N)ncc2C1=O | -10.7% |
| CC(C)c1nc2c(n1C)CCN(Cc1nc(-c3ccoc3)no1)C2 | -4.46% |
| COCCN(Cc1ccoc1)C(=O)c1ccc(Cl)s1 | -6.8% |
| O=C(NCCO)c1coc(Cn2cnc3ccccc32)n1 | -1.94% |
| Cc1cc(-c2cnc(NCc3ccccn3)nc2C(C)C)on1 | -11.7% |
